Data published in patent publication US5885834A, “Antisense oligodeoxynucleotide against phosphodiesterase” (priority 1997, dated 1999).
“Also recorded” adds a separate entry of the source.

What was measured:
isolated, quiescent HPBL = experiment: TUNEL assay of apoptosis, flow cytometry, quiescent HPBL; type: cell-based, human; conditions: isolated, quiescent HPBL in culture, ODN added
Excerpt: Nevertheless, the effects of AS ODNs on HPBL can still be tested by quantifying and comparing the percentage of cells undergoing apoptosis in the presence and absence of the AS ODN. Apoptosis detected by examining endonuclease-digested DNA, commonly referred to as the DNA laddering technique, has been employed and the results therefrom are set forth in FIG. 5. However, we prefer to use a TUNEL assay, an acronym for terminal deoxynucleotidyl transferase (TdT)-mediated dUTP nick end labeling, which more readily allows quantitation of the percentage of cells undergoing apoptosis. The principle of the TUNEL assay is that endonuclease digestion during apoptosis results in the formation of 3'-OH ends in the digested DNA. The digested DNA in the apoptotic cells can then be labeled with fluorescein by catalytically incorporating fluorescein-12-dUTP at the 3'-OH ends using the TdT enzyme. Fluorescence can then be quantitated by flow cytometry, using a fluorescence activated cell sorter (FACS), which would give a measure of the number of cells undergoing apoptosis. An example of the appearance of a population of fluorescein labeled apoptotic cells, as evidenced by flow cytometry, following TUNEL assay labeling of the cells, is shown in FIGS. 6A-C. Cells were then cultured for 3 days with 10 μg/ml PHA-P (Sigma), in the absence of any ODN (FIG. 6A), in the presence of 30 μM NS ODN (FIG. 6B), or in the presence of 30 μM AS ODN (FIG. 6C). Cells were then collected by centrifugation and fluorescein labeled by the TUNEL assay using the Promega Apoptosis Detection System. Flow cytometry was performed on a Beckton Dickinson FACScan by the FACS facility.
The procedure for analyzing apoptosis by the TUNEL method uses either an In Situ Cell Death Kit, Fluorescein from Boehringer Mannheim or an Apoptosis Detection System, Fluorescein from Promega and follows the protocols of the manufacturers. The data in FIGS. 6 and 7 was obtained using the manufacturer's protocol for the Apoptosis Detection System, Fluorescein from Promega. […]

[1] = test system: β-actin mRNA in RPMI 8392 cells; experiment: Quantitative RT-PCR of β-actin mRNA (control gene) after ODN treatment; type: cell-based, human; conditions: 10 or 30 μM ODN, 1 and 2 days
Excerpt: This is usually determined by looking at the reduction or disappearance of the protein product, either by selective measurement of an enzymatic activity of the protein, where applicable, or by immunoquantitation with specific antibodies by Western blot or ELISA techniques. Also, when PO or PS ODNs are used, which are capable of activating RNase H activity, it is expected that the mRNA of the targeted gene would be down regulated, most of the time, along with the protein product, and this can be readily tested by Northern blot analysis or PCR techniques. Using quantitative RT-PCR with primers specific for PDE1B1, we examined the RPMI 8392 cells for the presence of PDE1B1 mRNA. […] NS ODN, at these concentrations, had no effect on the expression of PDE1B1 mRNA. […]
HPBL were isolated from a normal human donor and placed in culture with (+PHA) or without (-PHA) phytohemagglutinin for 3 days. Quantitative RT-PCR was performed with 2 μg of HPBL RNA, using reagents and protocol from GIBCO/BRL. […]
Using quantitative RT-PCR, the effect of AS ODN and NS ODN on the level of mRNA for PDE1B1 in RPMI 8392 cells was examined. Quantitative RT-PCR was used to determine the relative amounts of β-actin and PDE1B1 mRNAs present in RPMI 8392 cells after 1 and 2 days in culture with 10 μM and 30 μM AS ODN (AS) and NS ODN (NS). […]

5'-GGACAGCTCCATGCTCAG-3' (phosphorothioate, further chemistry not given here) [AS ODN, 18 nt phosphorothioate antisense oligodeoxynucleotide targeted against the translation initiation region of PDE1B1]
Rate of formation of apoptotic HPBL cells (TUNEL) (isolated, quiescent HPBL): unchanged
Levels of β-actin mRNA [1]: unaltered; also recorded: unchanged

5'-TACGTGAGGCACCTACGC-3' (phosphorothioate, further chemistry not given here) [NS ODN, control phosphorothioate nonsense ODN, same base composition as the AS ODN in random, scrambled order]
Rate of formation of apoptotic HPBL cells (TUNEL) (isolated, quiescent HPBL): no different from control
Levels of β-actin mRNA [1]: no effect; also recorded: unchanged
